# Measured values reported in patent US20040167226A1, “Methods for the treatment of pain and traumatic injury using benzamides and compositions containing the same” (priority 2002, published 2004).
# “Also recorded” adds a separate entry of the source.
# Assays:
# [1] = PK parameter estimates, 30 mg/kg po in 1% methyl cellulose; assay type: in vivo, rats
# Excerpt: The time course of plasma concentration of compound N is depicted in FIG. 1 as well.
# [2] = test system: dorsal hemisection spinal cord injury; experiment: Spinal cord injury, T8 dorsal hemisection / over dorsal hemisection, BBB locomotor score; assay type: in vivo, Sprague-Dawley rats; settings: rats
# Procedure: (§1) Compound A was tested in both the rat dorsal hemisection (Guth, L. et al. (1980), J. Neurosurgery 52: 73-86) and contusion models (Scheff, S. W. (2003), J. Neurotrauma 20: 179-193) for evaluation of efficacy. These models are widely used in the field of spinal cord injury and replicate many of the pathological aspects found in humans who have sustained a spinal cord injury. Rats were subjected to an experimental spinal cord injury at T8, and were given Compound A shortly thereafter. Behavioral tests to assess the locomotion deficits were performed after the lesion. At the end of the experiment, animals were sacrificed and the spinal cord was collected for histopathological analysis. […] Histological assessment of the tissue at the site of injury was also made in both the drug treated and untreated group. In particular, subsequent to the behavioral measurement, spinal cord tissue from each animal was obtained and serial transverse tissue sections were stained with either anti-neurofilament antibody or antibodies specific for the inflammatory markers, tumor necrosis factor alpha (TNFα) and for the inducible form of nitric oxide synthetase (iNOS), followed by incubation with Alexa Fluor®-conjugated secondary antibodies.
# Female rats (Sprague-Dawley, 250-300 g) were purchased from Charles River. One week before spinal cord injury, the animals were both trained and had baseline measures taken on a locomotor behavioral test, the BBB test (Beattie Basso Bresnahan method) (Basso, D. M. et al. (1995), J. Neurotrauma 12(1): 1-21).
# The BBB score is a 21-point scale representing 21 stages of locomotor recovery after spinal cord injury. The scale is based on unique combinations of scored behaviors, ranked according to time of appearance after injury. The score can be divided into three parts: from 0-8, the scores emphasize voluntary movements of hindlimb joints; from 8-14, the scores represent standing and stepping with progressively better forelimb-hindlimb coordination; from 15-21, the scores indicate greater strength and better foot placement and balance. […]
# [3] = test system: neurofilament (nerve fiber density); experiment: Immunohistochemistry of neurofilament on transverse spinal cord sections; assay type: in vivo; settings: rats after spinal cord injury; anti-neurofilament staining; sections rostral and caudal to epicenter
# Procedure: as §1
# [4] = Brain-blood distribution of Compound A in the rat; assay type: in vivo; settings: brain / whole blood, single po dose 30 mg/kg, n = 5, read-out: Brain/Blood Ratio (Mean ± SD)
# Procedure: Blood-brain distribution of Compound A was assessed in the mouse, rat, and squirrel monkey by determining the concentrations of Compound A in blood and brain tissue at specific times post dose. Rats and mice received a single po dose of 30 mg/kg. The monkeys received a twice-daily 10 mg/kg po dose of Compound A for a total of 5 weeks prior to sacrifice. Brain to blood ratios for Compound A, as shown below in Table 4, show high penetration of the blood-brain barrier.
# [5] = rat, plasma, rats, 30 mg/kg po in 1% methyl cellulose, n = 3
structure (smiles),measurement,setting,value
"CC(=O)Nc1ccc(C(=O)NC(C)(C)C)cc1 [Compound A, N-tert-butyl-4-acetamidobenzamide]",bioavailability (in words),[1]; additional series of bioavailability experiments,excellent bioavailability
same,AUC(0-inf),[1]; [5],745 µg·h/mL
same,Cmax,[1]; [5],34000 ng/mL
same,Tmax,[1]; [5],8 h
same,half-life,"[1]; rat, plasma, rats, 30 mg/kg po in 1% methyl cellulose, n = 3, read-out: Elim.t1/2 (converted)",660 min
same,"neurological function, BBB score","[2]; SCI Study No. 1, 14 day dorsal hemisection (1.5 mm), i.p. BID 5 days, 75% PEG200 formulation",significant improvement in neurological function
same,"neurological function, BBB score","[2]; SCI Study No. 2, 21 day over dorsal hemisection (2 mm), 20 mg/kg BID i.p. 5 days, 75% PEG200 formulation",significant improvement in neurological function
same,"neurological function, BBB score","[2]; SCI Study No. 3, 5 week over dorsal hemisection, 20 mg/kg BID i.p. 5 days, 50% PEG400/25% ETOH/25% dH2O, 20 mg/kg",significant improvement in neurological function; also recorded: robust acute and long-term effects up to 5 weeks
same,nerve fiber density in spinal cord tissue vs vehicle control,[3],significantly higher nerve fiber density
same,Kp at 0.5 h,[4]; 0.5 h post-dose,0.71 ± 0.03
same,Kp at 1 h,[4]; 1.0 h post-dose,0.66 ± 0.02
same,Kp at 2 h,[4]; 2.0 h post-dose,0.67 ± 0.03
